Usually IC50 stands for the concentration that gives 50% inhibition.

The target in this experiment is T1, Estrogen Receptor Alpha Ligand binding domain (ER alpha-LBD (GST)) (Homo sapiens, UniProt P03372).
T1 construct: made in house
T1 sequence (P03372 307-554): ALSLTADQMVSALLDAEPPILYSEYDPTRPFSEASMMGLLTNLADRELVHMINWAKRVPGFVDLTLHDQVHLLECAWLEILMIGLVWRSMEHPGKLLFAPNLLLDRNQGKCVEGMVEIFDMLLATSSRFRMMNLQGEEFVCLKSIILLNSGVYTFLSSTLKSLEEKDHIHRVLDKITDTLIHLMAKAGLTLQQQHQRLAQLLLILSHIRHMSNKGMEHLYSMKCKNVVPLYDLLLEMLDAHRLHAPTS
Nature of the experiment: ERα Binding Assay (LanthaScreen TR-FRET competition). The conditions noted are these: competitive displacement of Fluormone ES2 tracer from recombinant human ER alpha-LBD (residues 307-554), 4 hours at room temperature. The procedure:
The ability of compounds to bind to isolated Estrogen Receptor Alpha Ligand binding domain (ER alpha-LBD (GST)) was assessed in competition assays using a LanthaScreen™ Time-Resolved Fluorescence Resonance Energy Transfer (TR-FRET) detection end-point. For the LanthaScreen TR-FRET endpoint, a suitable fluorophore (Fluormone ES2, ThermoFisher, Product code P2645) and recombinant human Estrogen Receptor alpha ligand binding domain, residues 307-554 (expressed and purified in-house) were used to measure compound binding. The assay principle is that ER alpha-LBD (GST) is added to a fluorescent ligand to form a receptor/fluorophore complex. A terbium-labelled anti-GST antibody (Product code PV3551) is used to indirectly label the receptor by binding to its GST tag, and competitive binding is detected by a test compound's ability to displace the fluorescent ligand, resulting in a loss of TR-FRET signal between the Th-anti-GST antibody and the tracer. The assay was performed as follows with all reagent additions carried out using the Beckman Coulter BioRAPTR FRD microfluidic workstation: • 1. Acoustic dispense 120 nL of the test compound into a black low volume 384 well assay plates. • 2. Prepare 1×ER alpha-LBD/Tb-anti-GST Ab in ES2 screening buffer and incubate for 15 minutes. • 3. Dispense 6 μL of the 1×[…]/Th-anti-GST Ab reagent into each well of the assay plate followed by 6 μL of Fluorophore reagent into each well of the assay plate • 4. Cover the assay plate to protect the reagents from light and evaporation, and incubate at room temperature for 4 hours. • 5. Excite at 337 nm and measure the fluorescent emission signal of each well at 490 nm and 520 nm using the BMG PheraSTAR.
Compounds were dosed directly from a compound source microplate containing serially diluted compound (4 wells containing 10 mM, […] and 10 nM final compound respectively) to an assay microplate using the Labcyte Echo 550. The Echo 550 is a liquid handler that uses acoustic technology to perform direct microplate-to-microplate transfers of DMSO compound solutions and the system can be programmed to transfer multiple small nL volumes of compound from the different source plate wells to give the desired serial dilution of compound in the assay which is then back-filled to normalise the DMSO concentration across the dilution range.
In total 120 nL of compound plus DMSO were added to each well and compounds were tested in a 12-point concentration response format over a final compound concentration range of 10, 2.917, 1.042, 0.2083, 0.1, 0.0292, 0.0104, 0.002083, 0.001, 0.0002917, 0.0001042, and 0.00001 μM respectively. TR-FRET dose response data obtained with each compound was exported into a suitable software package (such as Origin or Genedata) to perform curve fitting analysis. Competitive ER alpha binding was expressed as an IC50 value. This was determined by calculation of the concentration of compound that was required to give a 50% reduction in tracer compound binding to ER alpha-LBD.
(In TR-FRET formats the signal depends on donor and acceptor labels being close together.)
For the molecule `C[C@@H]1Cc2c([nH]c3ccccc23)[C@@H](c2cnc(N3CCC4(CCN(CC5CCN(c6ccc7c(c6)CN(C6CCC(=O)NC6=O)C7=O)CC5)CC4)CC3)nc2)N1CC(C)(C)F` (stereo partly drawn) [Example 9, 3-(5-{4-[(9-{5-[(1R,3R)-2-(2-fluoro-2-methylpropyl)-3-methyl-2,3,4,9-tetrahydro-1H-beta-carbolin-1-yl]pyrimidin-2-yl}-3,9-diazaspiro[5.5]undecan-3-yl)methyl]piperidin-1-yl}-1-oxo-1,3-dihydro-2H-isoindol-2-yl)piperidine-2,6-dione], the IC50 was determined as 8.7 nM. With `C[C@@H]1Cc2c([nH]c3ccccc23)[C@@H](c2cnc(N3CC(CCN4CCN(c5ccc6c(c5)CN(C5CCC(=O)NC5=O)C6=O)CC4)C3)nc2)N1CC(C)(C)F` (stereo partly drawn) [Example 37, 3-(5-{4-[2-(1-{5-[(1R,3R)-2-(2-fluoro-2-methylpropyl)-3-methyl-2,3,4,9-tetrahydro-1H-beta-carbolin-1-yl]pyrimidin-2-yl}azetidin-3-yl)ethyl]piperazin-1-yl}-1-oxo-1,3-dihydro-2H-isoindol-2-yl)piperidine-2,6-dione], the IC50 was 3.3 nM.

As to “3-[5-(9-{2-[(1S,3r)-3-({5-[(1R,3R)-2-(2-fluoro-2-methylpropyl)-3-methyl-2,3,4,9-tetrahydro-1H-beta-carbolin-1-yl]pyrimidin-2-yl}oxy)cyclobutyl]ethyl}-3,9-diazaspiro[5.5]undecan-3-yl)-1-oxo-1,3-dihydro-2H-isoindol-2-yl]piperidine-2,6-dione [Example 23]”, the 50% inhibitory concentration (IC50) stood at 4.4 nM.
